Patent US20090281040A1, “Methods For Treating Endoplasmic Reticulum (ER) Stress Disorders” (priority 2008, published 2009)
Where a SMILES comes first, the peptide text is derived from it. The star is where a group is joined. Cbz = O=C(OCc1ccccc1)*

What was measured:
AATF mRNA [1] = test: AATF mRNA by real-time PCR in wild-type, Ire1α−/− and Perk−/− mouse embryonic fibroblasts; assay type: cell-based; settings: for attenuation of the induction of AATF: Ire1α−/− cells versus wild-type; for induction of AATF: Perk−/− mouse embryonic fibroblasts versus wild-type
Procedure: (§1) Real-time polymerase chain reaction. Total RNA was isolated from cells using RNeasy Mini Kit (Qiagen) and reverse transcribed using 1 μg of total RNA from cells with Oligo-dT primer. For the thermal cycle reaction, the iQ5 system (BioRad, Hercules, Calif.) was used at 95° C. for 10 min, 40 cycles at 95° C. for 10 sec, and at 55° C. for 30 sec.
(§2) The relative amount for each transcript was calculated by a standard curve of cycle thresholds for serial dilutions of cDNA samples and normalized to the amount of actin. The polymerase chain reaction (PCR) was done in triplicate for each sample, after which all experiments were repeated twice. The following sets of primers and Power SYBR Green PCR Master Mix (Applied Biosystems, Foster City, Calif.) were used for real-time PCR:
The pathway by which AATF expression is regulated was investigated. IRE 1 and PERK are ER-resident protein kinases and regulators of the UPR. The expression levels of AATF were measured by real-time PCR in Ire1α^−/− and Perk^−/− mouse embryonic fibroblasts under ER stress conditions. […] To confirm this, Perk^−/− mouse embryonic fibroblasts were transfected with PERK expression plasmid, then AATF gene expression was measured. Chop expression was also measured as a control. PERK expression could restore both AATF and Chop expression (FIG. 2D).

Akt1 mRNA = Akt1 mRNA expression by real-time PCR; assay type: cell-based, rat; mouse; settings: Tg 1 μM
Procedure: as §1, §2
Whether Akt1 expression is increased by ER stress was examined. The expression levels of Akt1 mRNA were measured in the presence of ER stress in INS-1 832/13, neuro2A, and mouse embryonic fibroblasts.

AATF = AATF immunoblot of cytoplasmic and nuclear extracts from INS-1 832/13 cells; assay type: cell-based, rat; settings: Tg 1 μM
Procedure: Immunoblotting. Cells were lysed for 15 min on ice at 4° C. in ice-cold M-PER buffer (PIERCE, Rockford, Ill.) containing protease inhibitors. The lysates were then cleared by centrifuging the cells at 13,000 g. Lysates were normalized for total protein, separated by SDS-PAGE (15% gel or 5%-20% gradient gel), and transferred onto a polyvinylidene difluoride membrane. To detect human AATF protein, anti-AATF antibody from Bethyl (Montgomery, Tex.) was used. To detect rat AATF protein, a rabbit anti-AATF antibody generated using a peptide, RPREADPEADPEEATR, was used. Anti-actin and anti-myc (9E10) antibodies were purchased from Sigma (St. Louis, Mo.); anti-eIF2α was purchased from Santa Cruz Biotechnology (Santa Cruz, Calif.); anti-phospho-eIF2α, anti-Akt, anti-Akt1, anti-phospho-Akt, anti-Creb, anti-tubulin, and anti-caspase-3 antibodies were purchased from Cell Signaling (Danvers, Mass.).

Akt = test: Akt, Akt1 and phosphorylated Akt immunoblot in INS-1 832/13 cells; assay type: cell-based, rat; settings: INS1 832/13 cells, Tg 1 μM
Procedure: (§3) Immunoblotting. Cells were lysed for 15 min on ice at 4° C. in ice-cold M-PER buffer (PIERCE, Rockford, Ill.) containing protease inhibitors. The lysates were then cleared by centrifuging the cells at 13,000 g. Lysates were normalized for total protein, separated by SDS-PAGE (15% gel or 5%-20% gradient gel), and transferred onto a polyvinylidene difluoride membrane. To detect human AATF protein, anti-AATF antibody from Bethyl (Montgomery, Tex.) was used. To detect rat AATF protein, a rabbit anti-AATF antibody generated using a peptide, RPREADPEADPEEATR, was used. […]
It has been proposed that phosphorylation of Akt is important in protecting cells from apoptosis (Srinivasan, S., et al., Diabetes 54, 968-975 (2005). As shown in FIG. 4C (right panel), phosphorylation level of Akt was increased up to 8 hr after treatment, but decreased at 24 hr. To study the relationship between AATF suppression and Akt phosphorylation, AATF expression was suppressed using siRNA directed against AATF in INS-1 832/13 cells and the cells were treated with thapsigargin for 0, 3, and 8 hr, then Akt expression and Akt phosphorylation levels were measured by immunoblot. Both Akt expression and Akt phosphorylation levels were decreased by AATF siRNA (FIG. 4D). […] INS-1 832/13 cells were infected with the virus and Akt1 expression levels were measured.

AATF mRNA [2] = test: AATF mRNA expression by real-time PCR in cells treated with ER stress inducers; assay type: cell-based, rat; mouse; settings: for AATF mRNA expression: INS-1 832/13, neuro2A cells and mouse embryonic fibroblasts, 16 hr, TM 5 μg/ml, Tg 1 μM, MG132 2 μM, STR 0.05 and 0.01 μM
Procedure: Cell culture and transfection of small interfering RNA. Rat insulinoma cells, INS-1 832/13, were a gift from Dr. Christopher Newgard (Duke University Medical Center). These cells were cultured in RPMI 1640 supplemented with 10% FBS. Mouse embryonic fibroblasts, COS7 cells, and Neuro2a cells were maintained in DMEM with 10% fetal bovine serum. Human neuroblastoma cells, SH-SY5Y cells, were cultured in DMEM/F12 with 10% fetal bovine serum.
as §1
as §2, with “PCR: […]” for “PCR:”

eIF2α phosphorylation = eIF2α phosphorylation immunoblot in mouse embryonic fibroblasts; assay type: cell-based; parameters: dose or concentration left out as unconfirmed; settings: 16 hr
Procedure: as §3
It is established that PERK-mediated eIF2α phosphorylation has role in the up-regulation of its target genes (see, e.g., Harding, H. P., et al., Mol Cell 6, 1099-1108 (2000); Harding et al., Nature 397, 271-274 (1999)). Whether eIF2α phosphorylation could increase AATF expression was determined. Wild-type and Perk^−/− mouse fibroblasts were treated with salubrinal, a compound that increases eIF2α phosphorylation (see Boyce, M., et al., Science (New York, N.Y. 307, 935-939 (2005)), then AATF expression was measured, with Chop expression as a control. AATF expression, as well as Chop expression, was increased by salubrinal treatment in both wild-type and Perk^−/− mouse embryonic fibroblasts (FIG. 2C, upper panel). Immunoblot confirmed that eIF2α phosphorylation levels were increased by salubrinal (FIG. 2C, lower panel).

Chop mRNA = Chop mRNA by real-time PCR in wild-type and Perk−/− mouse embryonic fibroblasts; assay type: cell-based; parameters: dose or concentration left out as unconfirmed; settings: Salubrinal, 16 hr
Procedure: as §1, §2
It is established that PERK-mediated eIF2α phosphorylation has role in the up-regulation of its target genes (see, e.g., Harding, H. P., et al., Mol Cell 6, 1099-1108 (2000); Harding et al., Nature 397, 271-274 (1999)). Whether eIF2α phosphorylation could increase AATF expression was determined. […]

WFS1-ATF6 complex = test: WFS1-ATF6 co-immunoprecipitation in INS-1 832/13 cells; assay type: cell-based, rat
Procedure: Both WFS1 and ATF6 are transmembrane proteins localized to the ER. The association of WFS1 with ATF6 in INS-1 832/13 cells was examined. An anti-WFS1 antibody was used to immunoprecipitate (IP) WFS1 from INS-1 832/13 cells untreated (UT) or treated with the ER stress inducer DTT (1 mM) for 0.5 hr, 1.5 hr, or 3 hr. Immunoprecipitates were then subject to immunoblot (IB) analysis using anti-ATF6, anti-WFS1, and anti-actin antibodies. […] To confirm that the interaction between WFS1 and ATF6 is recovered post-stress, an anti-WFS1 antibody was used to immunoprecipiate (IP) WFS1 from INS-1 832/13 cells untreated (UT) or treated with the ER stress inducer DTT (1 mM) for 2 hr. The cells were then chased in normal media for 0 hr and 3 hr. Immunoprecipitates were subject to immunoblot (IB) analysis using anti-ATF6, anti-WFS1, and anti-actin antibodies. The relative amount of ATF6 protein was quantified using ImageJ software.

ATF6 = ATF6 protein level immunoblot in COS7 cells expressing ATF6-HA and WFS1-FLAG; assay type: cell-based; settings: MG132 15 μM, 3 hr
Procedure: To investigate whether the decrease in ATF6 protein level is proteosome-dependent, COS7 cells expressing ATF6-HA or ATF6-HA and WFS1-FLAG were either untreated (UT) or treated with the proteosome inhibitor MG132 (15 μM) for 3 hr. Lysates were immunoblotted with anti-HA, anti-FLAG, and anti-actin antibodies.

C/C=C(/C)C(=O)O[C@H]1C(C)=C2[C@H]([C@@H]1OC(=O)CCCCCCC)[C@@](C)(OC(C)=O)C[C@H](OC(=O)CCC)[C@@]1(O)[C@H]2OC(=O)[C@@]1(C)O [thapsigargin]
attenuation of the induction of AATF (AATF mRNA [1]): not | induction of AATF (AATF mRNA [1]): attenuated | time of peak Akt1 mRNA expression during ER stress (Akt1 mRNA; INS1 832/13 cells): 24 h | AATF protein expression in cytoplasmic and nuclear extracts (AATF): up-regulated | phosphorylation level of Akt (Akt; at 24 hr): decreased | phosphorylation level of Akt (Akt; up to 8 hr after treatment): increased | AATF mRNA expression (AATF mRNA [2]): up-regulated | AATF mRNA expression, time course (AATF mRNA [2]; INS-1 832/13 cells, Tg 0.5 μM, indicated times): continued to increase up to 24 hr

CN[C@@H]1C[C@H]2O[C@@](C)([C@@H]1OC)n1c3ccccc3c3c4c(c5c6ccccc6n2c5c31)C(=O)NC4 [staurosporin]
increase of Akt1 mRNA expression (Akt1 mRNA; INS-1 832/13, neuro2A and mouse embryonic fibroblasts, 16 hr, TM 5 μg/ml, MG132 2 μM, STR 0.05 and 0.01 μM): not | AATF mRNA expression (AATF mRNA [2]): not

O=C(/C=C/c1ccccc1)NC(NC(=S)Nc1cccc2cccnc12)C(Cl)(Cl)Cl (centres unmarked) [salubrinal]
AATF expression (AATF mRNA [1]; wild-type and Perk−/− mouse embryonic fibroblasts, Salubrinal 75 nM, 16 hr): increased | eIF2α phosphorylation levels (eIF2α phosphorylation): increased | Chop expression (Chop mRNA): increased

tunicamycin
attenuation of the induction of AATF (AATF mRNA [1]): not | induction of AATF (AATF mRNA [1]): attenuated | AATF mRNA expression (AATF mRNA [2]): up-regulated

O[C@@H](CS)[C@@H](O)CS [DTT]
interaction of ATF6 and WFS1 post-stress (WFS1-ATF6 complex; DTT 1 mM 2 hr, then 3 hour chase in normal media): began to recover | dissociation of ATF6 from WFS1 (WFS1-ATF6 complex; DTT 1 mM, 3 hours post-treatment, time-dependent): almost complete dissociation

CC(C)C[C@@H](C=O)NC(=O)[C@H](CC(C)C)NC(=O)[C@H](CC(C)C)NC(=O)OCc1ccccc1 [MG132] (Cbz-Leu-Leu-Leu-aldehyde)
ATF6 protein levels (ATF6): almost full recovery | AATF mRNA expression (AATF mRNA [2]): up-regulated
